Source: ChEMBL document CHEMBL3611969, “The effect of complexation of 3-formylrifamycin SV macrocyclic ether derivatives with metal cations and small nitrogen-containing organic molecules on antibacterial activity against S. aureus and S. epidermidis” (Bioorg Med Chem Lett, 2015)
≈ marks a conversion by molar mass, not a printed value.

Key:
[1] = test system: Staphylococcus epidermidis; test: Antibacterial activity against Staphylococcus epidermidis ATCC 12228 after 18 hrs by serial microdilution method in presence of 4-fluorobenzylamine; format: functional; conditions: ATCC 12228, 18 h
[2] = test system: Staphylococcus epidermidis; test: Antibacterial activity against Staphylococcus epidermidis ATCC 12228 after 18 hrs by serial microdilution method in presence of isoniazid; format: functional; conditions: ATCC 12228, 18 h
[3] = test system: Staphylococcus aureus; test: Antibacterial activity against Staphylococcus aureus ATCC 6538 after 18 hrs by serial microdilution method in presence of 2-chlorobenzylamine; format: functional; conditions: ATCC 6538, 18 h
[4] = test system: Staphylococcus aureus; test: Antibacterial activity against Staphylococcus aureus ATCC 6538 after 18 hrs by serial microdilution method in presence of isoniazid; format: functional; conditions: ATCC 6538, 18 h
[5] = Solubility of the compound in water at pH 7 in presence of histamine; format: physicochemical
[6] = test system: Staphylococcus epidermidis; test: Antibacterial activity against Staphylococcus epidermidis ATCC 49134 after 18 hrs by serial microdilution method; format: functional; conditions: ATCC 49134, 18 h
[7] = test system: Staphylococcus epidermidis; test: Antibacterial activity against Staphylococcus epidermidis ATCC 12228 after 18 hrs by serial microdilution method in presence of histamine; format: functional; conditions: ATCC 12228, 18 h
[8] = test system: Staphylococcus epidermidis; test: Antibacterial activity against Staphylococcus epidermidis ATCC 49134 after 18 hrs by serial microdilution method in presence of 2-chlorobenzylamine; format: functional; conditions: ATCC 49134, 18 h
[9] = test system: Staphylococcus aureus; test: Antibacterial activity against Staphylococcus aureus ATCC 4163 after 18 hrs by serial microdilution method; format: functional; conditions: ATCC 4163, 18 h
[10] = test system: Staphylococcus aureus; test: Antibacterial activity against Staphylococcus aureus ATCC 25923 after 18 hrs by serial microdilution method in presence of 4-fluorobenzylamine; format: functional; conditions: ATCC 25923, 18 h
[11] = test system: Staphylococcus aureus; test: Antibacterial activity against Staphylococcus aureus ATCC 4163 after 18 hrs by serial microdilution method in presence of 4-fluorobenzylamine; format: functional; conditions: ATCC 4163, 18 h
[12] = Solubility of the compound in water at pH 7; format: physicochemical
[13] = Octanol-water partition coefficient, log P of the compound by UV-vis method; format: physicochemical
[14] = test system: Staphylococcus aureus; test: Antibacterial activity against Staphylococcus aureus ATCC 6538 after 18 hrs by serial microdilution method in presence of histamine; format: functional; conditions: ATCC 6538, 18 h
[15] = test system: Staphylococcus aureus; test: Antibacterial activity against Staphylococcus aureus ATCC 4163 after 18 hrs by serial microdilution method in presence of isoniazid; format: functional; conditions: ATCC 4163, 18 h
[16] = test system: Staphylococcus epidermidis; test: Antibacterial activity against Staphylococcus epidermidis ATCC 12228 after 18 hrs by serial microdilution method; format: functional; conditions: ATCC 12228, 18 h
[17] = test system: Staphylococcus aureus; test: Antibacterial activity against Staphylococcus aureus ATCC 25923 after 18 hrs by serial microdilution method in presence of isoniazid; format: functional; conditions: ATCC 25923, 18 h
[18] = test system: Staphylococcus aureus; test: Antibacterial activity against Staphylococcus aureus ATCC 4163 after 18 hrs by serial microdilution method in presence of 2-chlorobenzylamine; format: functional; conditions: ATCC 4163, 18 h
[19] = test system: Staphylococcus epidermidis; test: Antibacterial activity against Staphylococcus epidermidis ATCC 12228 after 18 hrs by serial microdilution method in presence of 2-chlorobenzylamine; format: functional; conditions: ATCC 12228, 18 h
[20] = test system: Staphylococcus epidermidis; test: Antibacterial activity against Staphylococcus epidermidis ATCC 49134 after 18 hrs by serial microdilution method in presence of isoniazid; format: functional; conditions: ATCC 49134, 18 h
[21] = test system: Staphylococcus aureus; test: Antibacterial activity against Staphylococcus aureus ATCC 6538 after 18 hrs by serial microdilution method; format: functional; conditions: ATCC 6538, 18 h
[22] = test system: Staphylococcus epidermidis; test: Antibacterial activity against Staphylococcus epidermidis ATCC 49134 after 18 hrs by serial microdilution method in presence of histamine; format: functional; conditions: ATCC 49134, 18 h
[23] = test system: Staphylococcus aureus; test: Antibacterial activity against Staphylococcus aureus ATCC 6538 after 18 hrs by serial microdilution method in presence of 4-fluorobenzylamine; format: functional; conditions: ATCC 6538, 18 h
[24] = test system: Staphylococcus aureus; test: Antibacterial activity against Staphylococcus aureus ATCC 4163 after 18 hrs by serial microdilution method in presence of histamine; format: functional; conditions: ATCC 4163, 18 h
[25] = test system: Staphylococcus aureus; test: Antibacterial activity against Staphylococcus aureus ATCC 25923 after 18 hrs by serial microdilution method; format: functional; conditions: ATCC 25923, 18 h
[26] = test system: Staphylococcus aureus; test: Antibacterial activity against Staphylococcus aureus ATCC 25923 after 18 hrs by serial microdilution method in presence of histamine; format: functional; conditions: ATCC 25923, 18 h
[27] = test system: Staphylococcus aureus; test: Antibacterial activity against Staphylococcus aureus ATCC 25923 after 18 hrs by serial microdilution method in presence of 2-chlorobenzylamine; format: functional; conditions: ATCC 25923, 18 h
[28] = test system: Staphylococcus epidermidis; test: Antibacterial activity against Staphylococcus epidermidis ATCC 49134 after 18 hrs by serial microdilution method in presence of 4-fluorobenzylamine; format: functional; conditions: ATCC 49134, 18 h
[29] = Octanol-water partition coefficient, log P of the compound by UV-vis method in presence of histamine; format: physicochemical

MIC [1]: 0.25 mg/L
MIC [2]: 0.5 mg/L
MIC [3]: 0.25 mg/L
MIC [4]: 1 mg/L
solubility [5]: 0.41 mg/mL
MIC [6]: 0.5 mg/L (≈ 0.482 µM)
MIC [7]: 1.25 mg/L
MIC [8]: 0.25 mg/L
MIC [9]: 2 mg/L (≈ 1.93 µM)
MIC [10]: 0.25 mg/L
MIC [11]: 0.25 mg/L
solubility [12]: 0.11 mg/mL (≈ 106 µM)
logP [13]: 0.53
MIC [14]: 0.125 mg/L
MIC [15]: 1 mg/L
MIC [16]: 0.5 mg/L (≈ 0.482 µM)
MIC [17]: 1 mg/L
MIC [18]: 0.25 mg/L
MIC [19]: 0.25 mg/L
MIC [20]: 0.5 mg/L
MIC [21]: 2 mg/L (≈ 1.93 µM)
MIC [22]: 0.125 mg/L
MIC [23]: 0.25 mg/L
MIC [24]: 0.125 mg/L
MIC [25]: 2 mg/L (≈ 1.93 µM)
MIC [26]: 0.125 mg/L
MIC [27]: 0.25 mg/L
MIC [28]: 0.25 mg/L
logP [29]: 0.69
SMILES: CO[C@H]1/C=C/O[C@@]2(C)Oc3c(C)c(O)c4c(O)c(c(CNc5ccc6c(c5)OCCOCCOCCOCCOCCO6)c(O)c4c3C2=O)NC(=O)/C(C)=C\C=C\[C@H](C)[C@H](O)[C@@H](C)[C@@H](O)[C@@H](C)[C@H](OC(C)=O)[C@@H]1C
